Test results reported in patent US12252524B2, “GIP/GLP1 co-agonist compounds” (Eli Lilly and Company, priority 2018, dated 2025).
Like-named read-outs stand apart in the source and are kept apart here. Numbered stars: 1 amine (or outer) side, 2 acyl side, 3 side chain; on linkers, the order of the positions; unused ones are H or OH. Square brackets hold non-standard residues; d marks the D form. Side chains are listed from the residue outwards. Peptide text beside a SMILES is read from it. * marks the point of attachment. C20 diacid = O=C(O)CCCCCCCCCCCCCCCCCCC(=O)*; γGlu = O=C(O)[C@H](CCC(=O)[*:2])N[*:1]; αMeY = C[C@](N)(Cc1ccc(O)cc1)C(=O)O; αMeF = C[C@](N)(Cc1ccccc1)C(=O)O; αMeL = CC(C)C[C@](C)(N)C(=O)O; Dab = NCC[C@H](N)C(=O)O; Dap = NC[C@H](N)C(=O)O; AEEA = NCCOCCOCC(=O)O; Aib = CC(C)(N)C(=O)O

Assays:
[1] = target: human GLP-1 receptor (GLP-1R) (Homo sapiens, UniProt P43220); assay: cAMP pharmacological functional assay in presence of casein, hGLP-1R; type: cell-based
[2] = target: T1, gastric inhibitory peptide receptor (GIPR) (Homo sapiens, UniProt P48546); assay: cAMP pharmacological functional assay in presence of casein, hGIPR; type: cell-based
T1 sequence (P48546 22-466): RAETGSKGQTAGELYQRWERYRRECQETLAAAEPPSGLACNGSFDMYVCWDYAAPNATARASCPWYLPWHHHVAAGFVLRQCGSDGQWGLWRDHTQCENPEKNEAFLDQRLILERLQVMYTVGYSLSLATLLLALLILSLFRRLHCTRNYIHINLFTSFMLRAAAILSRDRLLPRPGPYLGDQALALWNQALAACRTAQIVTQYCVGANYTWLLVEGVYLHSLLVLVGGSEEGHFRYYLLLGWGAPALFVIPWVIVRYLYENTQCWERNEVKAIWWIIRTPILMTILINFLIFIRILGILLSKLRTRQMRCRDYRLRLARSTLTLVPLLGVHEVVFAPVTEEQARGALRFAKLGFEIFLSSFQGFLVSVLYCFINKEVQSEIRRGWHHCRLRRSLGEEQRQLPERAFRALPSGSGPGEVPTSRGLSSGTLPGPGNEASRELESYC

human GLP-1R [3] = target: T2, human GLP-1R (Homo sapiens, UniProt P43220); assay: GLP-1R CHO cell β-arrestin recruitment assay; type: cell-based; design: host or cells: CHO-K1 PathHunter cells, assay-ready frozen; conditions: for hGLP1R B-Arrestin2 % Top: normalized to GLP-1 maximum control
Source text: Activated G-protein coupled receptors can interact with the β-arrestin family of signalling proteins. […] CHO-K1 cells expressing Pro-Link-tagged Human GLP-1R and enzyme-acceptor-tagged β-arrestin-2 may be obtained from DiscoveRx and prepared as assay-ready frozen cells. Test peptides are solubilized in DMSO and serial dilutions are perfomed using the Echo acoustic dispenser (LabCyte). Assay media is the PathHunter Cell Assay Buffer (DiscoveRx) containing 0.1% w/v hydrolyzed Casein (Sigma). […] Plates are incubated for 90 minutes in a 37′C/5% C02 incubator and 10 ul of PathHunter detection reagent is added (DiscoveRx) and plates are incubated at room temperature for 60 minutes. Luminescence signal is measured. Peptide concentration-response curves fit to a four-parameter logistic model to calculate potency as an EC50.

human GLP-1R [4] = target: T2, human GLP-1R; assay: GLP-1R HEK293 cell membrane [35S]GTPγS binding assay; type: biochemical; design: expressed in transfected cells; host or cells: HEK293 cells expressing human GLP-1R; membranes
Summary of the method: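 Agonist-driven Gαs activation read as [35S]GTPγS ([…]) binding to receptor-expressing HEK293 membranes, 30 min at room temperature, pH 7.4. Detection by anti-Gαs immunocapture on scintillation beads; EC50 derived from four-parameter logistic concentration-response fit.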

[5] = HEK293 cells expressing hGLP-1R, 0.1% Casein, geometric mean, read-out: hGLP1R cAMP Rel EC50 nM (SEM, n)
[6] = HEK293 cells expressing hGIPR, 0.1% Casein, geometric mean, read-out: hGIPR cAMP Rel EC50 nM (SEM, n)
[7] = CHO-K1 cells, PathHunter β-arrestin-2 recruitment, 0.1% casein, read-out: hGLP1R B-Arrestin2 Rel EC50 uM (SEM, n)
[8] = HEK293 cell membranes expressing human GLP-1R, [35S]GTPγS binding, read-out: hGLP1R GTPgS Rel EC50 nM (SEM, n)

Chain of human GLP-1 receptor (GLP-1R) (P43220 24-463): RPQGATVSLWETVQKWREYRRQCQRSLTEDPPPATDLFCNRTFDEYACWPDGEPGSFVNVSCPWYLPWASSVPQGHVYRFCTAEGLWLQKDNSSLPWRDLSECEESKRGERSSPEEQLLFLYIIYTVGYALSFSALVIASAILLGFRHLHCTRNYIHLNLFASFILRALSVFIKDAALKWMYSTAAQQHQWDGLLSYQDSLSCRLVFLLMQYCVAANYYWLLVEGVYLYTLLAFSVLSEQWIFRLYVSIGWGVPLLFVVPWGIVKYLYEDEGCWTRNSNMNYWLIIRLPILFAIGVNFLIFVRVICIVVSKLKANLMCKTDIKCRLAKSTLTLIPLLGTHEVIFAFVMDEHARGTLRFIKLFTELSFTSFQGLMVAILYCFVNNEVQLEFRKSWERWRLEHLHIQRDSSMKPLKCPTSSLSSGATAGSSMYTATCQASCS
T2 sequence (P43220 24-463): as above

Row | SMILES | EC50 [1] | EC50 [2] | EC50 (human GLP-1R [3]) | hGLP1R B-Arrestin2 % Top (human GLP-1R [3]) | EC50 (human GLP-1R [4]) | EC50 [1, 5] | EC50 [2, 6] | EC50 (human GLP-1R [3]; [7]) | EC50 (human GLP-1R [4]; [8])
1 | CC[C@H](C)[C@H](NC(=O)[C@H](CC(C)C)NC(=O)[C@H](Cc1ccc(O)cc1)NC(=O)[C@H](CCC(=O)O)NC(=O)[C@@H](NC(=O)[C@H](Cc1ccccc1)NC(=O)[C@H](CCC(=O)O)NC(=O)C(C)(C)NC(=O)[C@H](CCC(N)=O)NC(=O)[C@H](C)NC(=O)[C@H](CCCCNC(=O)COCCOCCNC(=O)COCCOCCNC(=O)CC[C@H](NC(=O)CCCCCCCCCCCCCCCCCCC(=O)O)C(=O)O)NC(=O)[C@H](CCCCN)NC(=O)[C@H](CC(=O)O)NC(=O)[C@H](CC(C)C)NC(=O)[C@](C)(CC(C)C)NC(=O)[C@@H](NC(=O)[C@H](CO)NC(=O)[C@H](Cc1ccc(O)cc1)NC(=O)[C@H](CC(=O)O)NC(=O)[C@H](CO)NC(=O)[C@@H](NC(=O)[C@](C)(Cc1ccccc1)NC(=O)[C@@H](NC(=O)CNC(=O)[C@H](CCC(=O)O)NC(=O)C(C)(C)NC(=O)[C@H](N)Cc1ccc(O)cc1)[C@@H](C)O)[C@@H](C)O)[C@@H](C)CC)[C@@H](C)CC)C(=O)N[C@@H](C)C(=O)NCC(=O)NCC(=O)N1CCC[C@H]1C(=O)N[C@@H](CO)C(=O)N[C@@H](CO)C(=O)NCC(=O)N[C@@H](C)C(=O)N1CCC[C@H]1C(=O)N1CCC[C@H]1C(=O)N1CCC[C@H]1C(=O)N[C@@H](CO)C(N)=O [Example 345] (H-[dY][Aib]EGT[αMeF]TSDYSI[αMeL]LDKK([AEEA-AEEA-γGlu-C20 diacid])AQ[Aib]EFIEYLIAGGPSSGAPPPS-NH2) | 0.035 nM | 0.0649 nM | 0.00308 µM | 74.7% | 0.684 nM | – | – | – | –
2 | CC[C@H](C)[C@H](NC(=O)[C@H](CC(C)C)NC(=O)[C@H](Cc1ccc(O)cc1)NC(=O)[C@H](CCC(=O)O)NC(=O)[C@@H](NC(=O)[C@H](Cc1ccccc1)NC(=O)[C@H](C)NC(=O)C(C)(C)NC(=O)[C@H](CCC(N)=O)NC(=O)[C@H](C)NC(=O)[C@H](CCCCNC(=O)COCCOCCNC(=O)COCCOCCNC(=O)CC[C@H](NC(=O)CCCCCCCCCCCCCCCCCCC(=O)O)C(=O)O)NC(=O)[C@H](CCN)NC(=O)[C@H](CC(=O)O)NC(=O)[C@H](CC(C)C)NC(=O)[C@](C)(CC(C)C)NC(=O)[C@@H](NC(=O)[C@H](CO)NC(=O)[C@H](Cc1ccc(O)cc1)NC(=O)[C@H](CC(=O)O)NC(=O)[C@H](CO)NC(=O)[C@@H](NC(=O)[C@H](Cc1ccccc1)NC(=O)[C@@H](NC(=O)CNC(=O)[C@H](CCC(=O)O)NC(=O)C(C)(C)NC(=O)[C@H](N)Cc1ccc(O)cc1)[C@@H](C)O)[C@@H](C)O)[C@@H](C)CC)[C@@H](C)CC)C(=O)N[C@@H](C)C(=O)NCC(=O)NCC(=O)N1CCC[C@H]1C(=O)N[C@@H](CO)C(=O)N[C@@H](CO)C(=O)NCC(=O)N[C@@H](C)C(=O)N1CCC[C@H]1C(=O)N1CCC[C@H]1C(=O)N1CCC[C@H]1C(=O)N[C@@H](CO)C(N)=O [Example 347] (H-[dY][Aib]EGTFTSDYSI[αMeL]LD[Dab]K([AEEA-AEEA-γGlu-C20 diacid])AQ[Aib]AFIEYLIAGGPSSGAPPPS-NH2) | – | – | – | 24.6% | – | 0.102 nM | 0.0827 nM | 0.00542 µM | 0.759 nM
3 | CC[C@H](C)[C@H](NC(=O)[C@H](CC(C)C)NC(=O)[C@H](Cc1ccc(O)cc1)NC(=O)[C@H](CCC(=O)O)NC(=O)[C@@H](NC(=O)[C@H](Cc1ccccc1)NC(=O)[C@H](C)NC(=O)C(C)(C)NC(=O)[C@H](CCC(N)=O)NC(=O)[C@H](C)NC(=O)[C@H](CCCCNC(=O)COCCOCCNC(=O)COCCOCCNC(=O)CC[C@H](NC(=O)CCCCCCCCCCCCCCCCCCC(=O)O)C(=O)O)NC(=O)[C@H](CN)NC(=O)[C@H](CC(=O)O)NC(=O)[C@H](CC(C)C)NC(=O)[C@](C)(CC(C)C)NC(=O)[C@@H](NC(=O)[C@H](CO)NC(=O)[C@H](Cc1ccc(O)cc1)NC(=O)[C@H](CC(=O)O)NC(=O)[C@H](CO)NC(=O)[C@@H](NC(=O)[C@H](Cc1ccccc1)NC(=O)[C@@H](NC(=O)CNC(=O)[C@H](CCC(=O)O)NC(=O)C(C)(C)NC(=O)[C@H](N)Cc1ccc(O)cc1)[C@@H](C)O)[C@@H](C)O)[C@@H](C)CC)[C@@H](C)CC)C(=O)N[C@@H](C)C(=O)NCC(=O)NCC(=O)N1CCC[C@H]1C(=O)N[C@@H](CO)C(=O)N[C@@H](CO)C(=O)NCC(=O)N[C@@H](C)C(=O)N1CCC[C@H]1C(=O)N1CCC[C@H]1C(=O)N1CCC[C@H]1C(=O)N[C@@H](CO)C(N)=O [Example 348] (H-[dY][Aib]EGTFTSDYSI[αMeL]LD[Dap]K([AEEA-AEEA-γGlu-C20 diacid])AQ[Aib]AFIEYLIAGGPSSGAPPPS-NH2) | – | – | – | 19.8% | – | 0.113 nM | 0.193 nM | 0.00346 µM | 0.66 nM
4 | CC[C@H](C)[C@H](NC(=O)[C@H](CC(C)C)NC(=O)[C@H](Cc1ccc(O)cc1)NC(=O)[C@H](CCC(=O)O)NC(=O)[C@@H](NC(=O)[C@H](Cc1ccccc1)NC(=O)[C@H](CCC(=O)O)NC(=O)C(C)(C)NC(=O)[C@H](CCC(N)=O)NC(=O)[C@H](C)NC(=O)[C@H](CCCCNC(=O)COCCOCCNC(=O)COCCOCCNC(=O)CC[C@H](NC(=O)CCCCCCCCCCCCCCCCCCC(=O)O)C(=O)O)NC(=O)[C@H](CCN)NC(=O)[C@H](CC(=O)O)NC(=O)[C@H](CC(C)C)NC(=O)[C@](C)(CC(C)C)NC(=O)[C@@H](NC(=O)[C@H](CO)NC(=O)[C@H](Cc1ccc(O)cc1)NC(=O)[C@H](CC(=O)O)NC(=O)[C@H](CO)NC(=O)[C@@H](NC(=O)[C@H](Cc1ccccc1)NC(=O)[C@@H](NC(=O)CNC(=O)[C@H](CCC(=O)O)NC(=O)C(C)(C)NC(=O)[C@H](N)Cc1ccc(O)cc1)[C@@H](C)O)[C@@H](C)O)[C@@H](C)CC)[C@@H](C)CC)C(=O)N[C@@H](C)C(=O)NCC(=O)NCC(=O)N1CCC[C@H]1C(=O)N[C@@H](CO)C(=O)N[C@@H](CO)C(=O)NCC(=O)N[C@@H](C)C(=O)N1CCC[C@H]1C(=O)N1CCC[C@H]1C(=O)N1CCC[C@H]1C(=O)N[C@@H](CO)C(N)=O [Example 350] (H-[dY][Aib]EGTFTSDYSI[αMeL]LD[Dab]K([AEEA-AEEA-γGlu-C20 diacid])AQ[Aib]EFIEYLIAGGPSSGAPPPS-NH2) | – | – | – | 21.8% | – | 0.107 nM | 0.189 nM | 0.0108 µM | 0.589 nM
5 | CC[C@H](C)[C@H](NC(=O)[C@H](CC(C)C)NC(=O)[C@](C)(Cc1ccc(O)cc1)NC(=O)[C@H](CCC(=O)O)NC(=O)[C@@H](NC(=O)[C@H](Cc1ccccc1)NC(=O)[C@H](C)NC(=O)C(C)(C)NC(=O)[C@H](CCC(N)=O)NC(=O)[C@H](C)NC(=O)[C@H](CCCCNC(=O)COCCOCCNC(=O)COCCOCCNC(=O)CC[C@H](NC(=O)CCCCCCCCCCCCCCCCCCC(=O)O)C(=O)O)NC(=O)[C@H](CCC(=O)O)NC(=O)[C@H](CC(=O)O)NC(=O)[C@H](CC(C)C)NC(=O)[C@](C)(CC(C)C)NC(=O)[C@@H](NC(=O)[C@H](CO)NC(=O)[C@H](Cc1ccc(O)cc1)NC(=O)[C@H](CC(=O)O)NC(=O)[C@H](CO)NC(=O)[C@@H](NC(=O)[C@H](Cc1ccccc1)NC(=O)[C@@H](NC(=O)CNC(=O)[C@H](CCC(=O)O)NC(=O)C(C)(C)NC(=O)[C@H](N)Cc1ccc(O)cc1)[C@@H](C)O)[C@@H](C)O)[C@@H](C)CC)[C@@H](C)CC)C(=O)N[C@@H](C)C(=O)NCC(=O)NCC(=O)N1CCC[C@H]1C(=O)N[C@@H](CO)C(=O)N[C@@H](CO)C(=O)NCC(=O)N[C@@H](C)C(=O)N1CCC[C@H]1C(=O)N1CCC[C@H]1C(=O)N1CCC[C@H]1C(=O)N[C@@H](CO)C(N)=O [Example 381] (H-[dY][Aib]EGTFTSDYSI[αMeL]LDEK([AEEA-AEEA-γGlu-C20 diacid])AQ[Aib]AFIE[αMeY]LIAGGPSSGAPPPS-NH2) | – | – | – | 25.8% | – | – | – | 0.0155 µM | 0.273 nM
